Measurements taken from patent US9549553B2, “Active compound combinations having insecticidal properties” (BAYER CROPSCIENCE AKTIENGESELLSCHAFT, priority 2013, dated 2017).

Experiments:
Assay type in all cases: in vivo
[1] = tested on: fall armyworm larvae (Spodoptera frugiperda); test: Spodoptera frugiperda - spray test (maize leaf sections); conditions: mortality
Protocol: (§1) To produce a suitable preparation of the active compound, 1 part by weight of active compound is mixed with the stated amount of solvent and emulsifier, and the concentrate is diluted with emulsifier-containing water to the desired concentration. To produce a suitable preparation of a spore suspension the spores are diluted with emulsifier-containing water to the desired concentration.
Maize (Zea mais) leaf sections are sprayed with a preparation of the active ingredient of the desired concentration. Once dry, the leaf sections are infested with fall armyworm larvae (Spodoptera frugiperda).
After the specified period of time, mortality in % is determined. 100% means all caterpillars have been killed and 0% means none of the caterpillars have been killed. The mortality values determined thus are recalculated using the Colby-formula (see sheet 1).

[2] = tested on: mustard beetle larvae (Phaedon cochleariae); test: Phaedon cochleariae - spray test, Example B-2 (cabbage leaves); conditions: mortality
Protocol: (§2) Solvent: 7 parts by weight of dimethylformamide
Emulsifier: alkylaryl polyglycol ether
(§3) To produce a suitable preparation of active compound, 1 part by weight of active compound is mixed with the stated amount of solvent and is diluted with water, containing an emulgator concentration of 1000 ppm, to the desired concentration. Further test concentrations are prepared by dilution with emulsifier containing water Ammonium salt and/or penetration enhancer in a dosage of 1000 ppm are added to the desired concentration if necessary.
Cabbage leaves (Brassica oleracea) are treated by being sprayed with the preparation of the active compound of the desired concentration and are infested with mustard beetle larvae (Phaedon cochleariae).
After the specified period of time mortality in % is determined. 100% means all the beetle larvae have been killed and 0% means none of the beetle larvae have been killed. The mortality values determined thus are recalculated using the Colby-formula (see sheet 1).

[3] = tested on: green peach aphid (Myzus persicae); test: Myzus persicae - spray test, Example C-2 (cabbage leaves); conditions: mortality, 0.5 ppm
Protocol: as §2
Emulsifier: alkylaryl polyglycolether
as §3
Cabbage leaves (Brassica oleracea) which are heavily infested by the green peach aphid (Myzus persicae) are treated by being sprayed with the preparation of the active compound of the desired concentration.
After the specified period of time, mortality in % is determined 100% means all the aphids have been killed; 0% means none of the aphids have been killed. The mortality values determined thus are recalculated using the Colby-formula (see sheet 1).

[4] = tested on: green peach aphid (Myzus persicae); test: Myzus persicae - spray test, Example C-1 (Chinese cabbage leaf-disks); conditions: mortality
Protocol: To produce a suitable preparation of active compound, 1 part by weight of active compound is mixed with the stated amount of solvent and emulsifier, and the concentrate is diluted with emulsifier-containing water to the desired concentration.
Chinese cabbage (Brassica pekinensis) leaf-disks infected with all instars of the green peach aphid (Myzus persicae) are sprayed with a preparation of the active ingredient of the desired concentration.
After the specified period of time, mortality in % is determined 100% means all aphids have been killed; 0% means none of the aphids have been killed. The mortality values determined thus are recalculated using the Colby-formula (see sheet 1).

[5] = tested on: mustard beetle larvae (Phaedon cochleariae); test: Phaedon cochleariae - spray test, Example B-1 (Chinese cabbage leaf-disks); conditions: mortality
Protocol: as §1, with “of” for “of the”
Chinese cabbage (Brassica pekinensis) leaf-disks are sprayed with a preparation of the active ingredient of the desired concentration. Once dry, the leaf disks are infested with mustard beetle larvae (Phaedon cochleariae).
After the specified period of time, mortality in % is determined. 100% means all beetle larvae have been killed and 0% means none of the beetle larvae have been killed. The mortality values determined thus are recalculated using the Colby-formula (see sheet 1).

[6] = tested on: two spotted spidermite (Tetranychus urticae); test: Tetranychus urticae - spray test, OP-resistant (French beans); conditions: mortality, 1 g ai/ha
Protocol: as §1, with “of” for “of the”
French beans (Phaseolus vulgaris) which are heavily infested with all stages of the two spotted spidermite (Tetranychus urticae), are sprayed with a preparation of the active ingredient of the desired concentration.
After the specified period of time, mortality in % is determined. 100% means all spider mites have been killed and 0% means none of the spider mites have been killed. The mortality values determined thus are recalculated using the Colby-formula (see sheet 1).

[7] = tested on: larvae of the diamondback moth (Plutella xylostella); test: Plutella xylostella - spray test (cabbage leaves); conditions: mortality
Protocol: To produce a suitable preparation of active compound, 1 part by weight of active compound is mixed with the stated amount of solvent and emulsifier, and the concentrate is diluted with emulsifier-containing water to the desired concentration Ammonium salt and/or penetration enhancer in a dosage of 1000 ppm are added to the desired concentration if necessary.
Cabbage leaves (Brassica oleracea) are treated by being sprayed with the preparation of the active compound of the desired concentration and are infested with larvae of the diamondback moth (Plutella xylostella).
After the specified period of time, the mortality in % is determined. 100% means all the caterpillars have been killed; 0% means none of the caterpillars have been killed. The mortality values determined thus are recalculated using the Colby-formula (see sheet 1).

CC1(C)C(C=C(Cl)Cl)C1C(=O)OC(C#N)c1ccc(F)c(Oc2ccccc2)c1 (stereo not drawn) [Beta-Cyfluthrin (II-11), beta-Cyfluthrin]
Efficacy in % after 6d ([1]; 0.032 g ai/ha): 0% | Efficacy in % after 3d ([2]; 1.2 ppm): 0% | Efficacy in % after 6d [3]: 50%

CC1(C)[C@H](C(=O)O[C@H](C#N)c2cccc(Oc3ccccc3)c2)[C@@H]1C=C(Br)Br [Deltamethrin]
Efficacy in % after 6d ([1]; 0.25 g ai/ha): 0% | Efficacy in % after 6d ([4]; 0.15 g ai/ha): 0%

CC1(C)[C@H](C(=O)O[C@H](C#N)c2cccc(Oc3ccccc3)c2)[C@@H]1/C=C(\Cl)C(F)(F)F (racemic) [Lambda-Cyhalothrin, lambda-Cyhalothrin]
Efficacy in % after 6d ([5]; 0.25 g ai/ha): 0% | Efficacy in % after 6d ([4]; 0.125 g ai/ha): 0% | Efficacy in % after 6d [6]: 0% | Efficacy in % after 3d ([7]; 1 ppm): 0%

Cc1cc(C(F)(C(F)(F)F)C(F)(F)F)ccc1NC(=O)c1cccc(Cl)c1C(=O)NC(C)(C)C#N [(I-5)]
Efficacy in % after 6d ([1]; 0.8 g ai/ha): 33% | Efficacy in % after 6d ([5]; 2.5 g ai/ha): 0% | Efficacy in % after 6d ([5]; 12 g ai/ha): 0% | Efficacy in % after 3d ([2]; 1.2 ppm): 0% | Efficacy in % after 3d ([2]; 4.8 ppm): 50% | Efficacy in % after 6d ([4]; 1.25 g ai/ha): 0% | Efficacy in % after 6d ([4]; 1.5 g ai/ha): 0% | Efficacy in % after 6d ([4]; 15 g ai/ha): 0% | Efficacy in % after 3d ([7]; 0.25 ppm): 0%
